The source of these data is patent US6329497A, “Sandramycin analogs” (The Scripps Research Institute, priority 1999, dated 2001).

One data set deals with L1210 cell line. Briefly: In vitro cytotoxic activity, L1210. It counts as cell-based.
The target in data set [1] is T1, HIV-1 reverse transcriptase (Human immunodeficiency virus type 1 group M subtype B, UniProt P04585). As to the kind of experiment: Inhibition of HIV-1 reverse transcriptase. The format is biochemical. As to the method:
The assay was performed according to an available procedure (Goldman, M. E.; Salituro, G. S.; Bowen, J. A.; Williamson, J. M.; Zink, D. L.; Schleif, W. A.; Emini, E. A. Mol. Pharmacol. 1990, 38, 20) with slight modification. A 45 L solution of reaction buffer containing 55 mM Tris·HCl, pH 8.2, 80 mM potassium chloride, 12 mM MgCl2, 1 mM DTT, 50 M EGTA, 2.5 g/mL rA·dT, 0.5 Ci of [^3 H]TTP, 10 M TTP, 1 mg/mL BSA, and 0.01% Triton X-100 was added to a well in a filter cluster plate (Millipore MAHV N45). The reverse transcription reaction was initiated upon addition of the reverse transcriptase (1 unit; 1 unit=10 pmol of [^3 H]TMP incorporated/60 min at 37° C.). The plate was incubated at 37° C. for 90 min. The plate was then placed on ice and 200 µL of 13% trichloroacetic acid and 10 mM sodium pyrophosphate was added to each well. The plate was chilled for 2 h and the liquid vacuumed out through the filter using a Millipore manifold (Millipore MAVM 09601). The precipitate was washed with 1 M and 10 mM sodium pyrophosphate twice. The filter was punched out and placed in a scintillation vial. 4 mL of cocktail was added. Radioactivity was determined by liquid scintillation counting.
The effects of sandramycin and its analogs on HIV-1 reverse transcriptase were determined by incubating the agents and the rA·dT containing buffer at 25° C. for 30 min prior to addition of the reverse transcriptase. Reactions containing no agents were used as controls, and those lacking the transcriptase were used as blanks.

The nature of data set [2]: Solubility of the agents in assay buffer / water. The format is physicochemical. The settings on record: aqueous Tris-HCl/NaCl buffer pH 7.4.
In a further data set the test system is 5'-d(GCATGC)2. As to the kind of experiment: DNA binding by fluorescence quenching, 5'-d(GCATGC)2. The settings on record: for DNA binding affinity, in words: 5'-d(GCATGC)2, relative to 1 and 4. As to the method:
(§1) Apparent absolute DNA binding constants for 1-22 and related agents including luzopeptin A were obtained by measurement of the fluorescence quenching upon titration addition of calf thymus DNA or the deoxyoligonucleotides 5'-d(GCXXGC)2 where XX=AT, TA, GC, and CG. For each agent, the characteristic fluorescence excitation and emission spectra were recorded in 10 mM Tris-HCl, 75 mM NaCl (pH 7.4) buffer, FIG. 6. For the DNA binding assays which quantitate the fluorescence quenching, excitation outside the absorbance range of DNA was employed and the most intense fluorescence emission at a longer wavelength monitored. For assay of the DNA-induced fluorescence quenching of the agents, a 2 mL buffer solution of Tris-HCl (pH 7.4) and 75 mM NaCl was employed. For titration, small aliquots of DNA were added to solutions of the agents in Tris-HCl buffer (pH 7.4).
(§2) Despite these precautions, the fluorescence for a number of the analog solutions decreased for several of analogs (11, 14, 17, 21 and 22) and the quality of the binding constants for these should be viewed with caution. […] The titrations were carried out with 15 min time intervals between DNA additions to allow binding equilibration. […] The titration fluorescence quenching was analyzed by Scatchard analysis (Scatchard, G. Ann. N. Y. Acad. Sci. 1949, 51, 660) with the following equation: rb /c=Kb n-Kb rb where rb is the number of agent molecules bound per DNA base-pair, c is the free drug concentration, Kb is the apparent association constant, and n is the number of agent binding sites per base-pair.
A pronounced downward curvature in an infinite lattice such as calf thymus DNA is recognized to arise in part from neighbor exclusion where the binding of an agent excludes the subsequent binding at nearby sites. This exclusion manifests itself in the plot by a reduction in the apparent binding constant as the DNA lattice approaches saturation and the probability of finding a free site is diminished. In the calf thymus DNA studies, the binding also entails multiple classes of independent binding sites or modes. […]

Data set [3] has as its system calf thymus DNA and 5'-d(GCATGC)2. Briefly: DNA binding affinity trends over calf thymus DNA and 5'-d(GCATGC)2 (fluorescence quenching). As to the method:
as §1, §2
A pronounced downward curvature in an infinite lattice such as calf thymus DNA is recognized to arise in part from neighbor exclusion where the binding of an agent excludes the subsequent binding at nearby sites. This exclusion manifests itself in the plot by a reduction in the apparent binding constant as the DNA lattice approaches saturation and the probability of finding a free site is diminished. In the calf thymus DNA studies, the binding also entails multiple classes of independent binding sites or modes. For simplicity, a linear fit of the high affinity binding sites was used to determine the binding constant attributable to bis-intercalation. For the deoxyoligonucleotides, the curvature can be more simply attributed to multiple classes of independent binding sites or binding modes. There are a number of mathematical methods to deconvolute the curved plot into such individual binding events. In the deoxyoligonucleotide studies, a non-linear fit described by Feldman was also used to deconvolute the curves. The model assumes one ligand with two binding types or sites. Since the number of binding sites is limited, we have interpreted this to indicate a high affinity bis-intercalation and a lower affinity binding potentially involving mono-intercalation. The formula was fit using the JMP^22 statistical fitting program using an initial approximation of the two n values and fitting for K1 and K2.
After 5 min of stirring, an initial fluorescence reading was taken with minimum exposure to the excitation beam. […] The excitation and emission wavelengths used for each analog varied and can be found in FIG. 6. The results of the titration were analyzed by Scatchard analysis. The linear portion of the Scatchard plot was used to determine the high affinity binding constants. In the case of the deoxyoligonucleotide study, a non-linear fit of the curve as described in the text was also used to determine the high affinity binding constant (Feldman, H. A. Anal. Biochem. 1972, 48, 317).

Data set [4] concerns the target T1, HIV-1 reverse transcriptase. The settings on record: cited from earlier work.
Data set [5] deals with calf thymus DNA. Conditions: cited from earlier work.
In data set [6] the test system is calf thymus DNA. Briefly: DNA binding constants by fluorescence quenching, calf thymus DNA. As to the method:
as §1, with “For titration, small aliquots of DNA were added to solutions of the agents in Tris-HCl buffer (pH 7.4).” left out
Despite these precautions, the fluorescence for a number of the analog solutions decreased for several of analogs (11, 14, 17, 21 and 22) and the quality of the binding constants for these should be viewed with caution. […] The titration fluorescence quenching was analyzed by Scatchard analysis (Scatchard, G. Ann. N. Y. Acad. Sci. 1949, 51, 660) with the following equation: rb /c=Kb n-Kb rb where rb is the number of agent molecules bound per DNA base-pair, c is the free drug concentration, Kb is the apparent association constant, and n is the number of agent binding sites per base-pair. […]

As a reminder, the pIC50 is the negative decadic logarithm of the IC50, by convention in mol/L.

pIC50: −log10 of the molar value. Entries after “also recorded” stand apart in the source; their conditions may differ. Where two headings read alike, the source gives them in different places.

Turning to `CC(C)C1C(=O)OCC(NC(=O)c2cnc3ccccc3n2)C(=O)N2CCCCC2C(=O)NCC(=O)N(C)CC(=O)N(C)C(C(C)C)C(=O)OCC(NC(=O)c2cnc3ccccc3n2)C(=O)N2CCCCC2C(=O)NCC(=O)N(C)CC(=O)N1C` [compound 18, (N-(Quinoxalyl-2-carbonyl)-D-Ser-Pip-Gly-Sar-NMe-Val)2 (Serine Hydroxyl) Dilactone], in the data set with L1210 cell line, the “cytotoxic potency, fold less potent than 4” value is “approximately 10”; the “cytotoxic potency, fold less potent than 13” value is given as “approximately 10”; the “cytotoxic potency, fold more potent than 19” value amounted to 300. In data set [1], the “HIV-1 reverse transcriptase inhibition, in words” value was “roughly maintain the HIV-1 reverse transcriptase inhibitory potency of 1; also recorded: Comparable but slightly less potent inhibition” and the “fold less potent than sandramycin” value turned out to be 3. The “solubility in the fluorescence quenching assay” value (“solubility” below) in data set [2] is “not sufficiently soluble; also recorded: limited solubility”.
With “(N-(Iso-quinolinyl-3-carbonyl)-D-Ser-Pip-Gly-Sar-NMe-Val)2 (Serine Hydroxyl) Dilactone [compound 21]”, the entries for the “DNA binding affinity, in words” value (with 5'-d(GCATGC)2; in data set [3]) were “substantially less effective” and “comparable to that of the monointercalator 24”, respectively. The “HIV-1 reverse transcriptase inhibition, in words” value in data set [1] was “much less effective”.
On to `COc1ccc2nc(C(=O)N[C@@H]3COC(=O)[C@H](C(C)(C)O)N(C)C(=O)CN(C)C(=O)CNC(=O)[C@@H]4[C@@H](OC(=O)[C@@H]5C[C@H]5C)CC=NN4C(=O)[C@H](NC(=O)c4cnc5cc(OC)ccc5n4)COC(=O)[C@H](C(C)(C)O)N(C)C(=O)CN(C)C(=O)CNC(=O)[C@@H]4C(OC(C)=O)CC=NN4C3=O)cnc2c1` (stereo partly shown) [quinoxapeptin B], for which the “fold less potent than quinoxapeptin A and luzopeptin A” value in data set [4] is “approximately 2”.
For `CC[n+]1c(-c2ccccc2)c2cc(N)ccc2c2ccc(N)cc21` [ethidium bromide], the “binding constant employed to calculate the absolute binding constant” value in the data set with calf thymus DNA [5] is 450000 M⁻¹.
Regarding `COc1ccc2nc(C(=O)N[C@@H]3COC(=O)[C@H](C(C)(C)O)N(C)C(=O)CN(C)C(=O)CNC(=O)[C@@H]4[C@@H](OC(C)=O)CC=NN4C(=O)[C@H](NC(=O)c4nc5ccc(OC)cc5cc4O)COC(=O)[C@H](C(C)(C)O)N(C)C(=O)CN(C)C(=O)CNC(=O)[C@@H]4[C@@H](OC(C)=O)CC=NN4C3=O)c(O)cc2c1` [luzopeptin A, reference compound], in data set [1], the “fold higher than values reported elsewhere” value is recorded as 20-30. Besides, the pIC50 in data set [1] (range given for both agents) is 6.72 to 6.89; in data set [4] (read-out: IC50 reported elsewhere), 8.15.
Regarding “(N-(Isoquinolinyl-1-carbonyl)-D-Ser-Pip-Gly-Sar-NMe-Val)2 (Serine Hydroxyl) Dilactone [compound 22]”, the figures for the “DNA binding affinity, in words” value (in the data set on calf thymus DNA [6]; with 5'-d(GCATGC)2; in data set [3]) were “comparable to 4”, “substantially less effective” and “comparable to that of the monointercalator 24”, respectively. For the same compound, the “HIV-1 reverse transcriptase inhibition, in words” value in data set [1] is “much less effective”.
In the case of `CC(C)[C@H]1C(=O)OC[C@@H](NC(=O)c2cc3ccccc3cc2O)C(=O)N2CCCC[C@H]2C(=O)NCC(=O)N(C)CC(=O)N(C)[C@@H](C(C)C)C(=O)OC[C@@H](NC(=O)c2cc3ccccc3cc2O)C(=O)N2CCCC[C@H]2C(=O)NCC(=O)N(C)CC(=O)N1C` [compound 5, (N-(3-Hydroxynaphthyl-2-carbonyl)-D-Ser-Pip-Gly-Sar-NMe-Val)2(Serine Hydroxyl) Dilactone], in data set [3], the “DNA binding affinity, in words” value was “substantially less effective than all agents in the series”. In addition, the “cytotoxic potency, fold less potent than 1” value in the data set on L1210 cell line is 10000. The “HIV-1 reverse transcriptase inhibition, in words” value in data set [1] is “much less effective”. Besides, the “solubility” value in data set [2] was “not sufficiently soluble; also recorded: limited solubility”.
As to `CC(C)[C@H]1C(=O)OC[C@@H](NC(=O)c2ccc3ccccc3c2)C(=O)N2CCCC[C@H]2C(=O)NCC(=O)N(C)CC(=O)N(C)[C@@H](C(C)C)C(=O)OC[C@@H](NC(=O)c2ccc3ccccc3c2)C(=O)N2CCCC[C@H]2C(=O)NCC(=O)N(C)CC(=O)N1C` [compound 7], in data set [3], the “DNA binding affinity, in words” value was “substantially less effective than all agents in the series”. Also, in the data set with L1210 cell line, the “cytotoxic potency, fold less potent than 4” value came to 2000 and the “cytotoxic potency, fold less potent than 5” value was 2. The “HIV-1 reverse transcriptase inhibition, in words” value in data set [1] was “much less effective”. For the same compound, the “solubility” value in data set [2] is “not sufficiently soluble; also recorded: limited solubility”.
Take `CC(C)C1C(=O)OCC(NC(=O)c2ncccc2O)C(=O)N2CCCCC2C(=O)NCC(=O)N(C)CC(=O)N(C)C(C(C)C)C(=O)OCC(NC(=O)c2ncccc2O)C(=O)N2CCCCC2C(=O)NCC(=O)N(C)CC(=O)N1C` (stereo not shown) [compound 8]: the “drop in DNA binding affinity” value with calf thymus DNA [6] (removal of fused benzene ring) was 1.7 kcal/mol; in the data set with 5'-d(GCATGC)2 (5'-d(GCATGC)2, removal of fused benzene ring) it was 2.3 to 2.6 kcal/mol. Moreover, the “cytotoxic potency, fold less potent than 1” value with L1210 cell line was 4000. Moreover, in data set [1], the “HIV-1 reverse transcriptase inhibition, in words” value is listed as “much less effective”.
